Data on 2 compounds can be found in US20070105879A1 (HALEX ISTAR INDUSTRIA FARMACEUTICA LTDA., priority 2003, published 2007).

Molecules are shown by their SMILES. Structures can show the parent of a compound that is named as a salt. Where two headings read alike, the source gives them in different places.

For series [1] the following is noted: sodium salt / reconstituted state-of-the-art solution, cited from earlier work.
For series [2] the following is noted: cited from earlier work.
A short description of series [3]: pH and appearance of ganciclovir solutions. It counts as physicochemical. The conditions noted are these: glucose solution, formulation tests. From the text: The earlier tests were tried with the 9-((1,3-dihydroxypropan-2-iloxy)methyl)-2-amine-1-purin-6(9H)-one molecule used for preparing the lyophilized product.
Stabilizing the molecule in this pH, allowed lowering hazards during manipulation, once the previous solution was too much alkaline (pH=11), and was too much irritating after its reconstitution being not possible to be in contact with the skin, mucous membranes and eyes. Using appropriate glasses and gloves were necessary when manipulating this substance.
Yes, but can cause irritation in the site of the injection due the elevate pH of the injectable solution (pH˜11). It also can be done by subcutaneous administration, but with the same local irritation risk.
Because the resulting solution is strongly alkaline (pH=11) and irritating after its reconstitution, one must avoid the contact with the skin, mucous membranes and the eyes. Using glasses and gloves are necessary when manipulating it.

In the next series the test system is cytomegalovirus. Particulars: drug derived from acyclovir, U.S. Pat. No. 4,355,032; cited from earlier work.

For `Nc1nc2c(ncn2COC(CO)CO)c(=O)[nH]1` [Ganciclovir, 9-((1,3-dihydroxypropan-2-iloxy)methyl)-2-amine-1H-purin-6(9H)-one], the pH of solution in series [1] is on record as 11. In addition, in series [2] (room temperature, reconstituted inside its own vial), the “Stability (time)” value was 12 h. Also, in series [3], the appearance of solution result is “yellowish and oxidized solution”. In addition, the “activity against cytomegalovirus, times greater” value in the series on cytomegalovirus is recorded as 100 times.

As for `Nc1nc(O)c2ncn(COC(CO)CO)c2n1` [Ganciclovir sodium salt, 9-((1,3-dihydroxypropan-2-iloxy)methyl)-2-amine-1H-purin-6(9H)-one sodium salt], the pH of solution is given as 11 in series [1] (listed as sodium Ganciclovir, sodium salt) and “about 11” in series [1] (sodium salt). In series [2] (reconstituted with sterile water for injection, diluted with sodium chloride 0.9% in PVC bags, refrigeration at 5° C.), the “physically and chemically stable (time)” value was 14 days.
